The record followed here is US10058587B2, “Peptide composition for cancer treatment by inhibiting TRPV6 calcium channel activity” (priority 2008, dated 2018).

Series [1] relates to MCF 7 breast cancer cell line. Kind of series: Induction of apoptosis (APO-ONE caspase 3/7) and cell viability (CellTiter Blue). The series is classed as cell-based, human. Details: key: cell viability decreased (+); or not (−). As to the method:
MCF-7, MDA-MB-231, MDA-MB-415, MDA-MB-468 were grown in DMEM modified with 10% (v/v) fetal bovine serum, 2 mM L-glutamine and 50 ug/mL each of penicillin and streptomycin.
(§1) The levels of apoptotic induction and cell viability were determined by multiplexing the measurements for single samples. CellTiter Blue and APO-ONE assay systems from Promega allows the determination of cell viability correlated to cell number, and induction of apoptosis. This protocol uses a fluorgenic peptide that contains a peptide recognition-sequence for caspase 3 and caspase 7, […] proteolytic enzymes of the apoptosis cascade. The CellTiter Blue reagent was added to wells in a 96-well plate containing cells under test, immediately after addition of peptide solution or vehicle. About 5000 cells were plated into the wells the day before. At the chosen time (Day 1, Day 2 etc.) the fluorescence was measured at 590 nm (emission) after excitation at 560 nm. The caspase 3/7 activity was measured (485 nm Ex/527 nm Em) in the same wells after adding 120 uL of the Apo-ONE reagent, freeze fracturing at −80° C. for 1 hr, and incubating for 1 hr at room temperature.
(§2) For this work, the concentrations of SorC13 and SorC27 used were 0 uM, 1 uM, 10 uM and 100 uM. The experiments extended over a 5 to 7 day period. All measurements were done in quadruplicate with both a blank (no cells) and control (vehicle, no peptide) used to correct the test measurements. The time-response data, and the dose-response data were plotted as means±standard error of the mean. Any statistical comparisons were done with the Student's t-test or by ANOVA analysis over the dose course. The level of statistical significance was considered to be the 95% confidence interval (i.e., p≤0.05).
To benchmark the effect of both C-type peptides to the gold-standard treatment presently used against breast cancer (Paclitaxel), SorC13, SorC27 and Paclitaxel (10 uM) were compared. Both the APO-ONE assay (Promega) and the CellTiter Blue were used on the panel of breast cancer cell lines. […]
(The colour change of resazurin is a common sign of viable cells or microbes.)

The next series is described as follows: Solubility (aqueous). The conditions noted are these: aqueous.
In the next series the target is T1, human TRPV6b (Homo sapiens, UniProt Q9H1D0).
T1 construct: expressed in transfected cells; host or cells: LnCaP (ATCC CRL-1740), human lymph node prostate cancer cells
T1 sequence (Q9H1D0 41-765 limits assumed): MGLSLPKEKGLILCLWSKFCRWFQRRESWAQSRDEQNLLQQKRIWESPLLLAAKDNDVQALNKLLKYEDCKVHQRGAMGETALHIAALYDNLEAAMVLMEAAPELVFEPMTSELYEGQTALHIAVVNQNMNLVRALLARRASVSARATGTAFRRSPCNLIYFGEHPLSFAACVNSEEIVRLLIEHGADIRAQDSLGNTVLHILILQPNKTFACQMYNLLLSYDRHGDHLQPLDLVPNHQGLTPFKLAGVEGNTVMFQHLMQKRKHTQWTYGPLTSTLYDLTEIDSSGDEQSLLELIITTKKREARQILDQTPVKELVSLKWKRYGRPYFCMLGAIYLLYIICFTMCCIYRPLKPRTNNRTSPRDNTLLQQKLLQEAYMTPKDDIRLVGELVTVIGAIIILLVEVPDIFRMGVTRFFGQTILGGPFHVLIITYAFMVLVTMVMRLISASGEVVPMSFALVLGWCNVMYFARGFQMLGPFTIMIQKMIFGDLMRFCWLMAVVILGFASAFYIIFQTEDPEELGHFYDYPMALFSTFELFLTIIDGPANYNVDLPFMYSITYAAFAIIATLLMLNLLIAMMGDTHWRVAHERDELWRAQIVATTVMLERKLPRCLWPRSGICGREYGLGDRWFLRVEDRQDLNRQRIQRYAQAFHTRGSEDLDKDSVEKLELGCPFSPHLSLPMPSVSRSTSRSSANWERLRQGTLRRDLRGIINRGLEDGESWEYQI
Kind of series: Whole-cell patch clamp of calcium store operated current (ISOC) through TRPV6 in transfected LnCaP cells. Type of series: cell-based. The procedure:
An expression vector (pCAGS-IRES-hTRPV6b) (Bodding et al. 2003) containing the nucleotide code for human TRPV6b was transfected into and expressed by human lymph node prostate cancer (LnCaP, ATCC CRL-1740). Patch clamping with whole-cell current acquisition was used to measure the calcium current through this channel. Cells were treated and calcium store operated current (ISOC) was measured with either SorC13 (n=90) or SorC27 (n=30) in a closed-circuit perfusion for 3 min at each of cumulative concentrations of 0 (baseline), 100 nM, 500 nM 1 uM, 30 uM and 100 uM. Washout perfusion was done at 2 mL/min for 3 min. […] Further, both C-peptides are very strong inhibitors of calcium current through the TRPV6 channel with inhibition constants in the 100 nM range.

Series [2] in a line: Tissue distribution of Cy5.5-labeled peptides by optical imaging. The series is classed as in vivo, CD1 mice. An excerpt:
SorC13 and SorC27 were labeled with the near-infrared probe, Cy5.5. SorC13 was labeled at lysine-1 and lysine-8 with the infrared fluorescent probe cy5.5 through reaction with Cy5.5 NHS ester-activated process. SorC27 was labeled at the single cysteine thiol with Cy5.5 maleamide-activated reaction. The labeled peptides were purified with a combination of size exclusion chromatography and HPLC. The label, Cy5.5, fluoresces in the infra-red region after excitation with a scanning laser. The low energy laser is able to penetrate the animal to about 1 cm and, thus, by scanning prone and supine positions, the presence of the tagged peptides can be quantified in three dimensions.
Cy5.5-labeled peptides were intravenously injected into CD1 mice (4 for each compound) at 100 ug per animal in 100 uL, and animals were imaged live using an optical imaging system, Optix eXplorer (GE Healthcare Systems) at different time points (30 min, 90 min, 4 h). […] The bio-distribution of the labeled peptides in different organs and tissues were visualized and relatively quantified by optical imaging analysis. This protocol allows for visualization of the location of the labeled peptides and how the location changes over time. […] Nodes that accumulated the labeled peptides are indicated by line 1 (superfacial cervical nodes), line 4 (axillary nodes), line 5 (brachial nodes), line 8 (mesenteric nodes) and line 9 (inguinal nodes). FIGS. 8, 9 and 10 show the amounts of labeled peptides in various organs ex vivo.

Series [3] concerns HEY C2 ovarian cancer cell line. Kind of series: Induction of apoptosis (APO-ONE caspase 3/7) and cell viability (CellTiter Blue). Type of series: cell-based, human. Also noted: key to Decline in cell viability: decreased (+); or not (−). The procedure: HeyC2 was cultured in RPMI 1640 medium supplemented with 1.0 mM sodium pyruvate, 0.01 mg/mL insulin and 10% (v/v) fetal bovine serum.
as §1, §2

The nature of series [4]: Clearance route in iv mice. The settings on record: i.v.

Where no end group is shown, it is not given here. Bounds are passed on as bounds.

For KEFLHPSKVDLPR [SorC13, KEFLHPSKVDLPR], the entries for the “Decline in cell viability” value in series [1] (SorC13 1 uM), in series [1] (SorC13 10 uM) and in series [1] (SorC13 100 uM) were “−”, “−” and “+”, respectively.

The solubility is the concentration that dissolves in the medium under given conditions. Usually IC50 stands for the concentration that gives 50% inhibition. As a reminder, the Kd is a measure of binding affinity in units of concentration. EGKLSSNDTEGGLCKEFLHPSKVDLPR [SorC27] displayed a solubility in the series “Solubility (aqueous)” of over 200 mg/mL. In addition, at human TRPV6b, the IC50 was found to be 140 nM. The dissociation constant (Kd) at human TRPV6b worked out at 140 nM. In addition, in series [2] (Cy5.5-tagged peptide, 24 hours), the “detectable in tissues after perfusion” value is given as “still detectable”. Also, in series [2] (Cy5.5-tagged peptide, i.v. 100 ug), the tissue localization entry was “localize predominantly in lymph nodes, lung, liver and kidney”. Also, the “tissues with highest percent uptake (of total fluorescence) after perfusion” value in series [2] (Cy5.5 labeled, 4 and 24 hours after i.v. injection) was “liver, lung and kidney”. Moreover, the “Apoptosis Index (1 = no effect)” value is on record as 1.4 in series [3] (Day 6, SorC27 100 uM); 2.2 in series [3] (Day 7, SorC27 10 uM); 2.8 in series [3] (Day 7, SorC27 100 uM). In series [3] (SorC27), the “Decline in cell viability” value is “+”. Also, in series [4], the “Clearance route in iv mice @ 5 mg/kg” value is “Rapid via kidney”.
